Common to all, as to assay type: in vivo, human
Experiment [1] deals with patients with BPH who optionally also had LUTS. The experiment in a line: IPSS symptom evaluation after a single intraprostatic injection of FT or PBS, double-blind (Example One). The procedure: Patients with BPH and who optionally also had LUTS were given an intraprostatic injection of either a) FT (SEQ ID NO. 1 (Ile-Asp-Gln-Gln-Val-Leu-Ser-Arg-Ile-Lys-Leu-Glu-Ile-Lys-Arg-Cys-Leu), 2.5 mg) in phosphate buffered saline pH 7.2 (“PBS”) or b) PBS alone, under double-blind conditions by a urologist in an office setting under ultrasound guidance. Patients were followed for 1 to 6 years with regular physical examinations, laboratory tests, and evaluations of symptoms. Symptomatic evaluation was measured by the International Prostate Symptom Score (IPSS) which is a quantitative scale used to gauge prostatic symptomatic improvement or worsening. The IPSS quantifies the following: 1) incomplete bladder emptying after urination; 2) frequent urination; 3) stopping and starting during urination; 4) urgent need to urinate; 5) weakness of urinary stream; 6) need to push or strain during urination; 7) need to urinate after going to sleep at night (nocturia).
IPSS items 1, 3, 5 and 6 comprise the obstructive voiding scales and IPSS items 2, 4, and 7 comprise the irritative storage scales. The difference from baseline irritative storage scores to follow-up scores; and from baseline obstructive voiding scores to follow-up scores were calculated in FT treated subjects and Placebo treated controls.

Experiment [2] deals with patients with BPH who also optionally had LUTS. The experiment in a line: IPSS obstructive voiding scores after placebo injection followed by cross-over FT injection (Example Three). An excerpt: In a third analysis group, patients with BPH who also optionally had LUTS were given an intraprostatic injection of PBS pH 7.2 vehicle alone, under double-blind conditions by a urologist in an office setting under ultrasound guidance. Patients were followed for 1 to 3 years with regular physical examinations, laboratory tests, and evaluations of symptoms. 131 patients who received PBS vehicle alone injections after 1-3 years received a cross-over injection of FT (SEQ ID NO. 1 (Ile-Asp-Gln-Gln-Val-Leu-Ser-Arg-Ile-Lys-Leu-Glu-Ile-Lys-Arg-Cys-Leu), 2.5 mg) in phosphate buffered saline pH 7.2 (“PBS”). The differences from baseline obstructive voiding scores to follow-up scores were calculated in blinded placebo treated patients (Group One); blinded placebo treated patients who received subsequent conventional oral BPH medications (Group Two), and blinded placebo treated patients who subsequently received FT treatment (Group Three).

The test system is the same in experiment [3]. The experiment in a line: IPSS obstructive voiding scores in all patients who received FT versus placebo alone (Example Four). To be noted: Table 4, all FT-treated patients vs placebo alone. An excerpt:
In a fourth analysis group, patients with BPH who also optionally had LUTS were given an intraprostatic injection of PBS pH 7.2 vehicle alone or of FT, under double-blind conditions by a urologist in an office setting under ultrasound guidance. Patients were followed for 1 to 3 years with regular physical examinations, laboratory tests, and evaluations of symptoms. 217 patients received double blind placebo alone (Group One). 287 patients received double blind FT alone (Group Two). After 1-3 years, 131 patients who received PBS vehicle alone injections received a cross-over injection of FT (Group Three). The final group of 189 patients received blinded FT followed after 1-3 years by a second injection of FT (Group Four). The difference from baseline obstructive voiding scores to follow-up scores were calculated in blinded placebo treated patients (n=217), and compared to groups 2-4 who received FT treatment (n=607).

Setting [4] is: Table 1, single FT injection vs PBS control.
[5] abbreviates: general statement in the description.

Where no end group is shown, it is not given here.

Take “Ile-Asp-Gln-Gln-Val-Leu-Ser-Arg-Ile-Lys-Leu-Glu-Ile-Lys-Arg-Cys-Leu (IDQQVLSRIKLEIKRCL; also: trifluoroacetate salt) [SEQ ID NO: 1-FT, 17-mer peptide …]”: the entries for the “improvement in MISS measured by IPSS compared to control composition that does not contain FT” value in experiment [1] (setting [4]) and in experiment [1] (setting [5]) were “more than 34%” and “more than 20%”, respectively. Further, the “improvement in MOVS measured by IPSS compared to control composition that does not contain FT” value is on record as “more than 46%” in experiment [1] (setting [4]); “more than 30%” in experiment [1] (setting [5]); “more than 104%” in experiment [2] (Table 3, cross-over FT injection vs placebo alone); “more than 105%” in experiment [3]. The “improvement in MOVS measured by IPSS compared to placebo control followed by conventional oral BPH medication” value in experiment [2] (Table 3, cross-over FT injection) is “more than 320%”.

Values taken from patent US20200360466A1, “METHOD OF IMPROVING LOWER URINARY TRACT SYMPTOMS” (Nymox Corporation, priority 2019, published 2020).
